# Laboratory results as given in US10183014B2, “Ocular formulations for drug-delivery and protection of the anterior segment of the eye” (PanOptica, Inc., priority 2014, dated 2019).
# Where two headings read alike, the source gives them in different places.
# Assays:
# [1] = Ocular pharmacokinetics of formulations, Example 20-4; type: in vivo, Dutch Belted rabbits; conditions: TRIS 0.60%, glycerol 2%, VitK3 1 μM, Day 5, 1 hr post dose
# Procedure: The study design (Table 18-1) consisted of forty-nine (49) Dutch Belted rabbits, each receiving a 30 μL bilateral topical ocular dose.
# Ocular sampling occurred one hour following the first daily dose on Day 5 for all groups. Whole blood samples using K2EDTA as an anticoagulant were collected from all animals on Day 5, 1 hour post dose. The whole blood was placed on ice until samples were spun in a centrifuge to separate the plasma. Aqueous humor, conjunctiva, cornea, central retina, peripheral retina, central choroid, and peripheral choroid samples were collected following necropsy. Samples were then frozen at −70° C. or lower. For all Groups 1-16, plasma, central retina, central choroid, and cornea samples were assayed for PAN-90806.
# LYN A = LYN A (Homo sapiens, UniProt P07948); assay: In vitro inhibition of tyrosine kinases; type: biochemical; conditions: read-out: Mean % Inhibition at 1 μM Compound-I; 1 μM (568.9 ng/mL)
# LYN A, sequence (P07948 whole entry, species assumed): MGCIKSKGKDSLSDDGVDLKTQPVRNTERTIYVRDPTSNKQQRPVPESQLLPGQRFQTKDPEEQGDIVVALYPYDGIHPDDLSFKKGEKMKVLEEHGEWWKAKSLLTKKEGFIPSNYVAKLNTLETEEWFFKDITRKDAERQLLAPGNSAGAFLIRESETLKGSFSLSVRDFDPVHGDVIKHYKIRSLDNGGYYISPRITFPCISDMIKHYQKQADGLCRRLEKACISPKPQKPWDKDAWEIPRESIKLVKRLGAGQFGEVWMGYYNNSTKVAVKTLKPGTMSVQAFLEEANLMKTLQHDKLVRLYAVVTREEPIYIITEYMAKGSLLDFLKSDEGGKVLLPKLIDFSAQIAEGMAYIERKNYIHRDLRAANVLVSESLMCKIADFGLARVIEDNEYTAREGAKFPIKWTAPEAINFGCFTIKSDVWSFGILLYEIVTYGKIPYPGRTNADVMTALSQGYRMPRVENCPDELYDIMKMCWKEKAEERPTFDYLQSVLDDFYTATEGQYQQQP
# [2] = Particle size distribution by laser diffraction light scattering; type: physicochemical; conditions: API form HCl salt
# Procedure: Particle size distribution can be analyzed using laser diffraction light scattering, e.g., with a Horiba LA-950 V2. Generic assumptions are made in setting conditions and the refractive index value. The distributions are volume based. Sample density is adjusted to a generic range of percent transmission on the blue LED light source. A small sample cell (filled with water) can be used rather than the flow through cell, to minimize sample quantity.
# Particle size distribution was analyzed using laser diffraction light scattering with a Horiba LA-950 V2. Generic assumptions were made in setting conditions and the refractive index value. The distributions were volume based. Sample density was adjusted to a generic range of percent transmission on the blue LED light source. A small sample cell (filled with water) was used rather than the flow through cell, to minimize sample quantity.
# EPHB-4 = EPHB-4 (Homo sapiens, UniProt P54760); assay: In vitro inhibition of tyrosine kinases; type: biochemical; conditions: read-out: Mean % Inhibition at 1 μM Compound-I; 1 μM (568.9 ng/mL)
# EPHB-4, sequence (P54760 16-987, species assumed): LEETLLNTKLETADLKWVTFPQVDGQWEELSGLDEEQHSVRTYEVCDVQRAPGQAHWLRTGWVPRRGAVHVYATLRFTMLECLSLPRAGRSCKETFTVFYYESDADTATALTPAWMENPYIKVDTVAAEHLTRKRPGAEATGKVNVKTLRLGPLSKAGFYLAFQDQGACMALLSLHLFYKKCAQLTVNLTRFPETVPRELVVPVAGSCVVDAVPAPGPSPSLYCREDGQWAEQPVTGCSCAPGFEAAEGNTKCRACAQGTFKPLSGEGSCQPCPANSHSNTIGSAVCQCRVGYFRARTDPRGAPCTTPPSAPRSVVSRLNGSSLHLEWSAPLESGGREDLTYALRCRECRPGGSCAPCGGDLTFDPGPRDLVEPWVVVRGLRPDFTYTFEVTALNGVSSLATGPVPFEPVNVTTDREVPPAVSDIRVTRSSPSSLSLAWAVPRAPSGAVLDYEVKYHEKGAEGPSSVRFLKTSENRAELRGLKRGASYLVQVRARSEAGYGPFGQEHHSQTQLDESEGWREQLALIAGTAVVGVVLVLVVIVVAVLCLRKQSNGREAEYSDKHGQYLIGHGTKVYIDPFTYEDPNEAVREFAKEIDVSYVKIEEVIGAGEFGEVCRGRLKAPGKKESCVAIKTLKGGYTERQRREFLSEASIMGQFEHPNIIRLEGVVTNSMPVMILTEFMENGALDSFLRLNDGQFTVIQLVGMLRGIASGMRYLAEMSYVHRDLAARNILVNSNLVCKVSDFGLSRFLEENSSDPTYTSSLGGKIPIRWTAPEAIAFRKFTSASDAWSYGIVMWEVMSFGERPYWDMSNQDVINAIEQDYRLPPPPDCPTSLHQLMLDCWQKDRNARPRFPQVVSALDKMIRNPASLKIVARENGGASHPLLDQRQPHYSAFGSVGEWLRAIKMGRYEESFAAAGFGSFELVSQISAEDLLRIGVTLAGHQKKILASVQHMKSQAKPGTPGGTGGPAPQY
# EPHB-1 = EPHB-1 (Homo sapiens, UniProt P54762); assay: In vitro inhibition of tyrosine kinases; type: biochemical; conditions: read-out: Mean % Inhibition at 1 μM Compound-I; 1 μM (568.9 ng/mL)
# EPHB-1, sequence (P54762 18-984, species assumed): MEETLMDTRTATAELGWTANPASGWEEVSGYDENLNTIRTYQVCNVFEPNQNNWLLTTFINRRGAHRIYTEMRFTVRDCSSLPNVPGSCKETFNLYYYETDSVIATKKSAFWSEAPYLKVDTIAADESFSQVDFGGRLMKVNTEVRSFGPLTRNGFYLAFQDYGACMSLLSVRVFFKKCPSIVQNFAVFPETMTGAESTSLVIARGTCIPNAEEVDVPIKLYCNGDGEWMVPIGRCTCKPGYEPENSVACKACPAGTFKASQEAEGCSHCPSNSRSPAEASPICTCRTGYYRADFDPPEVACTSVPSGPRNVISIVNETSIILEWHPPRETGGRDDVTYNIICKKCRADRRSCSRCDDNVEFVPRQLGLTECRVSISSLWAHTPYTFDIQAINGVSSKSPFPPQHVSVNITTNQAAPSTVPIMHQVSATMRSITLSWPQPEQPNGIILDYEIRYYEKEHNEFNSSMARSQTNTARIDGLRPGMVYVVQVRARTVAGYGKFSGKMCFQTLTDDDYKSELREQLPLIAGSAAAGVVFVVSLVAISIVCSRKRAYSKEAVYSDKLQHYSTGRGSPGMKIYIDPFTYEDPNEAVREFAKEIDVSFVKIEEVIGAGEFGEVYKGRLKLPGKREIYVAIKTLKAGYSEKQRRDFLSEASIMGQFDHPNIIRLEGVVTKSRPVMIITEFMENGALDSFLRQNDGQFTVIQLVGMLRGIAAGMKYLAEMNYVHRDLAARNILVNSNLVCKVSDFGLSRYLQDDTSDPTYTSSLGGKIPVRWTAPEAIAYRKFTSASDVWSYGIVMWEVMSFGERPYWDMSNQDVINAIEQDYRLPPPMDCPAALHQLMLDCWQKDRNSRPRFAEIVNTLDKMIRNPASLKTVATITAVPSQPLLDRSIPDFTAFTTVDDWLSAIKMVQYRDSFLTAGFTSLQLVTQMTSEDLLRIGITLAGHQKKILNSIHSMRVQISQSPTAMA
# [3] = excipient HPMC, roller speed low, media size 3 mm, particles under storage 21 days, RT
# [4] = excipient Pluronic F-127, roller speed high, media size 0.8 mm
# [5] = excipient Tyloxapol, milling not given
# [6] = excipient Tyloxapol, roller speed high, media size 0.8 mm, particles under storage 6 days, 40° C.
# [7] = excipient Tyloxapol, roller speed low, media size 3 mm
smiles,measurement,setting,value
"Cl.NC(=O)c1c(OCc2c(F)cc(Br)cc2F)nsc1NC(=O)NCCCCN1CCCC1 [Compound-I, 3-[(4-bromo-2,6-difluorophenyl)methoxy]-5-[[[[4-(1-pyrrolidinyl)butyl]amino]carbonyl]amino]-4-isothiazolecarboxamide hydrochloride]",Plasma concentration,"[1]; Group 9: 4 mg/mL Salt suspension, PSD 30 μm/XL, HEC 0.3%, Tylox 0.04%, pH 7, QD",7.38 nM
same,concentration at 1 h,"[1]; Group 9: 4 mg/mL Salt suspension, PSD 30 μm/XL, HEC 0.3%, Tylox 0.04%, pH 7, QD, read-out: Central Retina concentration",102 nM
same,Plasma concentration,"[1]; Group 10: 4 mg/mL Salt suspension, PSD 30 μm/XL, HEC 0.2%, Tylox 0.04%, pH 7, QD",5.28 nM
same,concentration at 1 h,"[1]; Group 10: 4 mg/mL Salt suspension, PSD 30 μm/XL, HEC 0.2%, Tylox 0.04%, pH 7, QD, read-out: Central Choroid concentration",166 nM
same,concentration at 1 h,"[1]; Group 10: 4 mg/mL Salt suspension, PSD 30 μm/XL, HEC 0.2%, Tylox 0.04%, pH 7, QD, read-out: Central Retina concentration",50.2 nM
same,Plasma concentration,"[1]; Group 11: 4 mg/mL Salt suspension, PSD 30 μm/XL, HEC 0.3%, HPMC 0.08%, pH 6, QD",4.65 nM
same,concentration at 1 h,"[1]; Group 11: 4 mg/mL Salt suspension, PSD 30 μm/XL, HEC 0.3%, HPMC 0.08%, pH 6, QD, read-out: Central Choroid concentration",154 nM
same,concentration at 1 h,"[1]; Group 11: 4 mg/mL Salt suspension, PSD 30 μm/XL, HEC 0.3%, HPMC 0.08%, pH 6, QD, read-out: Central Retina concentration",79.6 nM
same,Plasma concentration,"[1]; Group 12: 4 mg/mL Salt suspension, PSD 30 μm/XL, HEC 0.2%, HPMC 0.08%, pH 6, QD",3.66 nM
same,concentration at 1 h,"[1]; Group 12: 4 mg/mL Salt suspension, PSD 30 μm/XL, HEC 0.2%, HPMC 0.08%, pH 6, QD, read-out: Central Choroid concentration",137 nM
same,concentration at 1 h,"[1]; Group 12: 4 mg/mL Salt suspension, PSD 30 μm/XL, HEC 0.2%, HPMC 0.08%, pH 6, QD, read-out: Central Retina concentration",49 nM
same,Plasma concentration,"[1]; Group 13: 4 mg/mL Salt suspension, PSD Native (≈50) μm/XXL, HEC 0.2%, HPMC 0.08%, pH 6, QD",5.24 nM
same,concentration at 1 h,"[1]; Group 13: 4 mg/mL Salt suspension, PSD Native (≈50) μm/XXL, HEC 0.2%, HPMC 0.08%, pH 6, QD, read-out: Central Choroid concentration",234 nM
same,concentration at 1 h,"[1]; Group 13: 4 mg/mL Salt suspension, PSD Native (≈50) μm/XXL, HEC 0.2%, HPMC 0.08%, pH 6, QD, read-out: Central Retina concentration",67.7 nM
same,Plasma concentration,"[1]; Group 14: 4 mg/mL Salt suspension, PSD 3 μm/Large, HEC 0.2%, HPMC 0.08%, pH 6, QD",4.99 nM
same,concentration at 1 h,"[1]; Group 14: 4 mg/mL Salt suspension, PSD 3 μm/Large, HEC 0.2%, HPMC 0.08%, pH 6, QD, read-out: Central Choroid concentration",241 nM
same,concentration at 1 h,"[1]; Group 14: 4 mg/mL Salt suspension, PSD 3 μm/Large, HEC 0.2%, HPMC 0.08%, pH 6, QD, read-out: Central Retina concentration",99.2 nM
same,Plasma concentration,"[1]; Group 15: 4 mg/mL Salt suspension, PSD 30 μm/XL, HEC 0.3%, HPMC 0.08%, pH 7, QD",3.25 nM
same,concentration at 1 h,"[1]; Group 15: 4 mg/mL Salt suspension, PSD 30 μm/XL, HEC 0.3%, HPMC 0.08%, pH 7, QD, read-out: Central Choroid concentration",200 nM
same,concentration at 1 h,"[1]; Group 15: 4 mg/mL Salt suspension, PSD 30 μm/XL, HEC 0.3%, HPMC 0.08%, pH 7, QD, read-out: Central Retina concentration",53.2 nM
same,inhibition at 1 µM,LYN A,81%
same,PSD (Particle Size Distribution) Mean,[2]; [3],~450 nm
same,PSD (Particle Size Distribution) Median,[2]; [3],~170 nm
same,PSD (Particle Size Distribution) Mean,[2]; [4],~100 nm
same,PSD (Particle Size Distribution) Median,[2]; [4],~100 nm
same,PSD (Particle Size Distribution) Mean,[2]; [5],~110 nm
same,PSD (Particle Size Distribution) Median,[2]; [5],~110 nm
same,PSD (Particle Size Distribution) Mean,[2]; [6],~120 nm
same,PSD (Particle Size Distribution) Median,[2]; [6],~110 nm
same,PSD (Particle Size Distribution) Mean,[2]; [7],~8500 nm
same,PSD (Particle Size Distribution) Median,[2]; [7],~6700 nm
same,inhibition at 1 µM,EPHB-4,80%
same,inhibition at 1 µM,EPHB-1,83%
